Assay results: patent US8129401B2, “Heterocyclic compounds useful for the treatment of inflammatory and allergic disorders: process for their preparation and pharmaceutical compositions containing them” (Glenmark Pharmaceuticals S.A., priority 2004, dated 2012)
Counter-ions that a name gives are not always drawn.

What follows are compounds tested on PDE4 enzyme (assay: Inhibition of phosphodiesterase enzymes (PDE4), [3H]cAMP hydrolysis assay). Details: PDE4 inhibition at 1 μM compound.
Format: biochemical
`COc1ccc(C(=O)Nc2c(Cl)cncc2Cl)c2c3c(n(CC4CC4)c12)CCN(C(=O)OC(C)(C)C)C3` [Example 12, tert-butyl 9-(3,5-dichloro-4-pyridylcarbamoyl)-6-methoxy-5-cyclopropylmethyl-1,3,4,5-tetrahydro-1H-pyrido[4,3-b]indole-2-carboxylate] was tested, and the “percent inhibition at 1 μM” value was 48.79% at 1 μM.
For `COc1ccc(C(=O)Nc2c(Cl)cncc2Cl)c2c3c(n(C)c12)CCN(C)C3` [Example 15, N9-(3,5-dichloro-4-pyridylcarbamoyl)-6-methoxy-2,5-methyl-1,3,4,5-tetrahydro-1H-pyrido[4,3-b]indole], the “percent inhibition at 1 μM” value was 12.90% at 1 μM.
`COc1ccc(C(=O)Nc2c(Cl)cncc2Cl)c2c3c(n(C)c12)CCN(C(=O)OC(C)(C)C)C3` [Example 10, tert-butyl 9-(3,5-dichloro-4-pyridylcarbamoyl)-6-methoxy-5-methyl-1,3,4,5-tetrahydro-1H-pyrido[4,3-b]indole-2-carboxylate] was tested, and the “percent inhibition at 1 μM” value was 27.74% at 1 μM.
For `COc1ccc(C(=O)Nc2ccncc2)c2c3c(n(C)c12)CCN(C(=O)OC(C)(C)C)C3` [Example 17, tert-butyl 9-(4-pyridinylcarbamoyl)-6-methoxy-5-methyl-1,3,4,5-tetrahydro-1H-pyrido[4,3-b]indole-2-carboxylate], the “percent inhibition at 1 μM” value was 33.67% at 1 μM.
`COc1ccc(C(=O)Nc2c(Cl)cncc2Cl)c2c3c(sc12)CNCC3` [Example 08, N5 (3,5-dichloro-4-pyridyl)-8-methoxy-1,2,3,4-tetrahydrobenzo[4,5]thieno[2,3-c]pyridine-5-carboxamide hydrochloride] was tested, and the “percent inhibition at 1 μM” value was 31.75% at 1 μM.
“N9-(3,5-dichloro-4-pyridylcarbamoyl)-6-methoxy-5-methyl-1,3,4,5-tetrahydro-1H-pyrido[4,3-b]indole hydrochloride [Example 13]” was tested, and the “percent inhibition at 1 μM” value was 20.99% at 1 μM.
In the case of `COc1ccc(C(=O)Nc2c(Cl)cncc2Cl)c2c3c(n(C)c12)C(=O)N(C)CC3` [Example 22, N-(3,5-dichloropyridin-4-yl)-2,9-dimethyl-8-methoxy-1-oxo-1,2,3,4-tetrahydro-β-carboline-5-carboxamide], the “percent inhibition at 1 μM” value is reported as 34.54% at 1 μM.

Same assay, conditions: PDE4 inhibition, 1 μM cAMP, 34° C.
With `COc1ccc(C(=O)Nc2c(Cl)cncc2Cl)c2c1oc1cnncc12` [Example 01, N9-(3,5-dichloro-4-pyridyl)-6-methoxybenzo[4,5]furo[2,3-d]pyridazine-9-carboxamide] the IC50 was 1.38 nM.
For `COc1ccc(C(=O)Nc2c(Cl)cncc2Cl)c2c3c(n(Cc4ccccc4)c12)CCN(C(=O)OC(C)(C)C)C3` [Example 11, tert-butyl 9-(3,5-dichloro-4-pyridylcarbamoyl)-6-methoxy-5-benzyl-1,3,4,5-tetrahydro-1H-pyrido[4,3-b]indole-2-carboxylate], the IC50 was 177 nM.
For `COc1ccc(C(=O)Nc2c(Cl)cncc2Cl)c2c3c(oc12)CNCC3` [Example 20, N-(3,5-dichloropyridin-4-yl)-8-methoxy-1,2,3,4-tetrahydro[1]benzofuro[2,3-c]pyridine-5-carboxamide hydrochloride], the IC50 was 17.4 nM.
`COc1ccc(C(=O)Nc2c(Cl)cncc2Cl)c2c3c(sc12)CN(C(=O)OC(C)(C)C)CC3` [Example 07, tert-butyl 5-(3,5-dichloro-4-pyridylcarbamoyl)-8-methoxy-1,2,3,4-tetrahydrobenzo[4,5]thieno[2,3-c]pyridine-2-carboxylate] was tested, and the IC50 was 416 nM.
`COc1ccc(C(=O)Nc2c(Cl)cncc2Cl)c2c3c(oc12)CCNC3` [Example 21, N-(3,5-dichloropyridin-4-yl)-6-methoxy-1,2,3,4-tetrahydro[1]benzofuro[3,2-c]pyridine-9-carboxamide hydrochloride] was tested, and the IC50 was 20.4 nM.
Compound `COc1ccc(C(=O)Nc2c(Cl)cncc2Cl)c2c3c(n(Cc4ccccc4)c12)CCNC3` [Example 14, N9-(3,5-dichloro-4-pyridylcarbamoyl)-6-methoxy-5-benzyl-1,3,4,5-tetrahydro-1H-pyrido[4,3-b]indole hydrochloride] has an IC50 of 3530 nM.
`COc1ccc(C(=O)Nc2c(Cl)cncc2Cl)c2c1oc1cncnc12` [Example 02, N9-(3,5-dichloro-4-pyridyl)-6-methoxybenzo[4,5]furo[3,2-d]pyrimidine-9-carboxamide] gave an IC50 of 494 nM.
In the case of `O=C(Nc1c(Cl)c[n+]([O-])cc1Cl)c1ccc(OC(F)F)c2oc3ccncc3c12` [Example 26, 3,5-dichloro-4-(6-difluoromethoxybenzo[4,5]furo[3,2-c]pyridin-9-ylcarboxamido)-1-pyridiniumolate], the IC50 is reported as 2.69 nM.
In the case of `CCOC(=O)N1CCc2c(oc3c(OC)ccc(C(=O)Nc4c(Cl)cncc4Cl)c23)C1` [Example 19, N-(3,5-dichloropyridin-4-yl)-2-(ethoxycarbonyl)-8-methoxy-1,2,3,4-tetrahydro[1]benzofuro[2,3-c]pyridine-5-carboxamide], the IC50 is reported as 7.53 nM.
`COc1ccc(C(=O)Nc2c(Cl)cncc2Cl)c2c3c(n(Cc4ccccc4)c12)CCN(C)C3` [Example 16, N9-(3,5-dichloro-4-pyridylcarbamoyl)-6-methoxy-2-methyl-5-benzyl-1,3,4,5-tetrahydro-1H-pyrido[4,3-b]indole] was tested, and the IC50 was 2280 nM.
For `O=C(Nc1c(Cl)cncc1Cl)c1ccc(OC(F)F)c2oc3ccncc3c12` [Example 23, N9-(3,5-dichloro-4-pyridyl)-6-difluoromethoxybenzo[4,5]furo[3,2-c]pyridine-9-carboxamide], the IC50 was 0.25 nM.
`COc1ccc(C(=O)Nc2c(Cl)cncc2Cl)c2c1oc1ccncc12` [Example 03, N9-(3,5-dichloro-4-pyridyl)-6-methoxybenzo[4,5]furo[3,2-c]pyridine-9-carboxamide] was tested, and the IC50 was 0.73 nM.
Compound `O=C(Nc1c(Cl)cncc1Cl)c1ccc(OC(F)F)c2oc3cnncc3c12` [Example 04, N9-(3,5-dichloro-4-pyridyl)-6-difluoromethoxybenzo[4,5]furo[2,3-d]pyridazine-9-carboxamide] has an IC50 of 3.41 nM.
For `O=C(Nc1c(Cl)c[n+]([O-])cc1Cl)c1ccc(OC(F)F)c2oc3ccncc3c12` [Example 27, 3,5-dichloro-4-(6-difluoromethoxybenzo[4,5]furo[3,2-c]pyridin-9-ylcarboxamido)-1-pyridiniumolate sodium], the IC50 was 2.42 nM.
With `O=C(Nc1c(Cl)c[n+]([O-])cc1Cl)c1ccc(OC(F)F)c2oc3cnncc3c12` [Example 25, 3,5-dichloro-4-(6-difluoromethoxybenzo[4,5]furo[2,3-d]pyridazine-9-ylcarboxamido)-1-pyridiniumolate] the IC50 was 3.99 nM.

Same assay, conditions: PDE4 inhibition, 1 μM cAMP, 34° C.; sodium
`O=C(Nc1c(Cl)cncc1Cl)c1ccc(OC(F)F)c2oc3ccncc3c12` [Example 24, N9-(3,5-dichloro-4-pyridyl)-6-difluoromethoxybenzo[4,5]furo[3,2-c]pyridine-9-carboxamide sodium] showed an IC50 of 0.02 nM.

Same assay, conditions: PDE4 inhibition, 1 μM cAMP, 34° C.; sodium salt
`O=C(Nc1c(Cl)cncc1Cl)c1ccc(OC(F)F)c2oc3cnncc3c12` [Example 05, N9-(3,5-dichloro-4-pyridyl)-6-difluoromethoxybenzo[4,5]furo[2,3-d]pyridazine-9-carboxamide sodium salt] gave an IC50 of 4.15 nM.
Compound `COc1ccc(C(=O)Nc2c(Cl)cncc2Cl)c2c1oc1cnncc12` [Example 18, N9-(3,5-dichloro-4-pyridyl)-6-methoxybenzo[4,5]furo[2,3-d]pyridazine-9-carboxamide sodium salt] has an IC50 of 4.08 nM.
